Measurements published in patent publication US20230192699A1, “COMPOUNDS AS CASEIN KINASE INHIBITORS” (GRITSCIENCE BIOPHARMACEUTICALS CO., LTD., priority 2020, published 2023).

What was measured:
[1] = tested on: MDA-MB-231 cells (breast cancer cells); assay: Transwell cell migration assay; format: cell-based; details: MDA-MB-231, 24 h; for relative migration (%) of cells: FIG. 61; for migrated cells: FIGS. 62-67
Description: MDA-MB-231 cells (breast cancer cells) were starved in 0.5% serum-DMEM for 8 hours. For the migration assay, a total of 5×10^4cells were suspended in 500 μL of serum-free DMEM medium and seeded into the upper chamber of a […] pore size insert. Then, 750 μL of DMEM (containing 10% FBS) with or without the compound of the present application was added to the lower compartment. After incubation at 37° C. for 24 h, migrated cells were washed with PBS, fixed in 4% PFA and stained for 30 min in crystal violet solution (0.1% crystal violet). […] Each insert was photographed in 3 random fields at a magnification of 40×.

wild type CK1δ = wild type CK1δ (Homo sapiens, UniProt P48730); assay: CK1δ kinase assay (Kinase-Glo); format: biochemical; details: 10 μM ATP, 2 nM wild type CK1δ, 85 min at 25° C.; read-out: CK1δ inhibition (IC50)
Description: The CK1δ kinase assay was performed with a buffer (40 μL, pH 7.5) containing 50 mM Tris, 10 mM MgCl2, 1 mM dithiothreitol, 100 μg/mL BSA with 10 μM ATP, 2 nM wild type CK1δ, and 42 μM peptide substrate PLSRTLpSVASLPGL (Flotow et al., 1990) in the presence of 1 μL of a CK1δ inhibitor (e.g., a compound of the present application) or 4% DMSO (e.g., as control). The reaction mixture was incubated for 85 min at 25° C.; detection was carried out as described for the Kinase-Glo Assay (Promega). Luminescent output was measured on the Perkin Elmer Envision plate reader (PerkinElmer, Waltham, Mass.).

MDA-MB-231 cells = assay: Cell proliferation assay (crystal violet); format: cell-based; details: various concentrations, 72 hours
Description: MDA-MB-231 cells treated with a compound of the present application (e.g., compound 1-1, 2-5, 1-14 and 3-8, respectively) were seeded at a density of 5×10^4cells/well in 12-well plate and incubated at 37° C. with 5% CO2. After 72 hours of culturing, the cells were washed with PBS, fixed in 4% formaldehyde for 15 minutes and stained with 0.1% crystal violet for 20 minutes. Cells were washed with water and the staining was extracted with 10% acetic acid for 20 minutes and absorbance was measured at 590 nm. The experiments were performed in triplicates.

wild type CK1δ, sequence (P48730 whole entry): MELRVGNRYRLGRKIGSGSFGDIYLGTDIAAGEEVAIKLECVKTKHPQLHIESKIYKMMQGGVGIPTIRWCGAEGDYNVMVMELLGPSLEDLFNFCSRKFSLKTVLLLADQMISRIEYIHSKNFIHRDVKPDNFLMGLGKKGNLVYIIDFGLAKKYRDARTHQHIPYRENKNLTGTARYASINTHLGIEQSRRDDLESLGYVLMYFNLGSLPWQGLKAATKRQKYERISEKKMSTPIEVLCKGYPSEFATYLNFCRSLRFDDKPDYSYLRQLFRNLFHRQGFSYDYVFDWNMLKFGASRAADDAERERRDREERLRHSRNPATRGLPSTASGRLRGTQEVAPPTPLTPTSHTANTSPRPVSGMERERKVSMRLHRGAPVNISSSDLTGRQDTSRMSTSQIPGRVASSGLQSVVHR

Compound | relative migration (%) of cells [1] | migrated cells [1] | IC50 (wild type CK1δ) | relative proliferation (%) of cells (MDA-MB-231 cells)
CC(=O)N1CCn2nc(-c3ccc(F)cc3)c(-c3ccncc3)c2C1 [Compound 1-14, 1-(2-(4-fluorophenyl)-3-(pyridin-4-yl)-6,7-dihydropyrazolo[1,5-a]pyrazin-5(4H)-yl)ethan-1-one] | reduced | suppressed the migration | 61.5 nM | affected in a concentration dependent manner
Fc1ccc(-c2nc3c(n2-c2ccncc2)CCCC3)cc1 [Compound 2-5, 2-(4-fluorophenyl)-1-(pyridin-4-yl)-4,5,6,7-tetrahydro-1H-benzo[d]imidazole] | reduced | suppressed the migration | 408 nM | affected in a concentration dependent manner
